From PMC6096703, “Pharmacokinetic drug interaction and safety after coadministration of clarithromycin, amoxicillin, and ilaprazole: a randomised, open-label, one-way crossover, two parallel sequences study” (European Journal of Clinical Pharmacology, 2018)
One block for each compound: values may come before it.

Tests used:
clinical = conditions: male, human, in vivo, t1/2
[1] = in vivo
[2] = Pharmacokinetic assessment of plasma concentrations (LC-MS/MS, non-compartmental analysis) after mono/dual and triple therapy; conditions: for AUC(0-inf) / AUC(0-t) / Cmax / Vd/F / Tmax / half-life: male, human, plasma; for AUC(0-inf) / AUC(0-t) / Cmax / Vd/F / half-life: oral; for Tmax: po, median (min–max)
[3] = design: method as in PMID 16231964; conditions: cited from earlier work
[4] = Safety assessment: adverse events and adverse drug reactions; format: in vivo, healthy Korean male volunteers; conditions: Part I
Description: Safety and tolerability were evaluated throughout the study. The assessments included monitoring of all adverse events (AEs) based on physical examinations, vital signs, 12-lead ECG, routine haematology, serum chemistry, and urinalysis. The subjects were instructed to notify the study physicians or nurses of any AEs that occurred during the study. All AEs reported by subjects or detected in the assessments were recorded, and the investigators determined their relationship to the treatment. The severity of the AEs was evaluated based on the Common Terminology Criteria for Adverse Events (CTCAE, version 4.03).

[5] = AUCinf, dual therapy, period 1 of part 2, N = 15, arithmetic mean (SD)
[6] = AUCinf, geometric least square mean, dual therapy, period 1 of part 2, N = 15
[7] = AUCinf, geometric least square mean, triple therapy, period 2 of part 2, N = 15
[8] = AUCinf, triple therapy, period 2 of part 2, N = 15, arithmetic mean (SD)
[9] = AUClast, dual therapy, period 1 of part 2, N = 15, arithmetic mean (SD)
[10] = AUClast, geometric least square mean, dual therapy, period 1 of part 2, N = 15
[11] = AUClast, geometric least square mean, triple therapy, period 2 of part 2, N = 15
[12] = AUClast, triple therapy, period 2 of part 2, N = 15, arithmetic mean (SD)
[13] = dual therapy, period 1 of part 2, N = 15, arithmetic mean (SD)
[14] = geometric least square mean, dual therapy, period 1 of part 2, N = 15
[15] = geometric least square mean, triple therapy, period 2 of part 2, N = 15
[16] = triple therapy, period 2 of part 2, N = 15, arithmetic mean (SD)
[17] = clarithromycin 500 mg + amoxicillin 1000 mg oral single dose (dual therapy, period 1 of part 2), N = 15
[18] = clarithromycin 500 mg + amoxicillin 1000 mg oral with ilaprazole 10 mg (triple therapy, day 5 of period 2, part 2), N = 15
[19] = ilaprazole in triple therapy, period 2 of part 1, N = 13, arithmetic mean (SD)
[20] = 10 mg, ilaprazole monotherapy, period 1 of part 1, N = 13, arithmetic mean (SD)

- half-life (clinical): 1.18 h
- Plasma amoxicillin concentrations at 48 h after study drug administration [1]: not detected
- AUCinf GMR (90% CI), triple therapy/dual therapy ([1]; male, human): 0.99 (0.83–1.17)
- AUClast GMR (90% CI), triple therapy/dual therapy ([1]; male, human): 0.98 (0.83–1.16)
- t1/2 ([1]; male, human): 1.96 (3.26) h
- AUC(0-inf) [2, 5]: 28500 ng·h/mL
- AUC(0-inf) [2, 6]: 27200 ng·h/mL
- AUC(0-inf) [2, 7]: 26900 ng·h/mL
- AUC(0-inf) [2, 8]: 27400 ng·h/mL
- AUC(0-t) [2, 9]: 27900 ng·h/mL
- AUC(0-t) [2, 10]: 26700 ng·h/mL
- AUC(0-t) [2, 11]: 26200 ng·h/mL
- AUC(0-t) [2, 12]: 26700 ng·h/mL
- Cmax [2, 13]: 9370 ng/mL
- Cmax [2, 14]: 9140 ng/mL
- Cmax [2, 15]: 7910 ng/mL
- Cmax [2, 16]: 8140 ng/mL
- Vd/F [2, 13]: 64.7 L
- Vd/F [2, 16]: 95.1 L
- Tmax [2, 17]: 1.5 h
- Tmax [2, 18]: 2 h
SMILES: CC1(C)S[C@@H]2[C@H](NC(=O)[C@H](N)c3ccc(O)cc3)C(=O)N2[C@H]1C(=O)O [Amoxicillin, amoxicillin]
- bioavailability [3]: 89–98%

- CL/F [2, 13]: 36.6 (12.7) L/h
- AUC(0-inf) [2, 5]: 15000 ng·h/mL
- AUC(0-inf) [2, 6]: 14400 ng·h/mL
- AUC(0-inf) [2, 7]: 15700 ng·h/mL
- AUC(0-inf) [2, 8]: 16900 ng·h/mL
- AUC(0-t) [2, 9]: 14600 ng·h/mL
- AUC(0-t) [2, 10]: 14000 ng·h/mL
- AUC(0-t) [2, 11]: 15300 ng·h/mL
- AUC(0-t) [2, 12]: 16500 ng·h/mL
- Cmax [2, 13]: 1870 ng/mL
- Cmax [2, 14]: 1770 ng/mL
- Cmax [2, 15]: 1590 ng/mL
- Cmax [2, 16]: 1720 ng/mL
- Vd/F [2, 13]: 247 L
- Vd/F [2, 16]: 230 L
- half-life ([2]; t1/2, dual therapy, period 1 of part 2, N = 15, arithmetic mean (SD)): 4.84 h
- half-life ([2]; t1/2, triple therapy, period 2 of part 2, N = 15, arithmetic mean (SD)): 4.83 h
- Tmax [2, 17]: 2 h
- Tmax [2, 18]: 2.5 h
- CL/F [2, 16]: 34.4 (15.1) L/h
SMILES: CC[C@H]1OC(=O)[C@H](C)[C@@H](O[C@H]2C[C@@](C)(OC)[C@@H](O)[C@H](C)O2)[C@H](C)[C@@H](O[C@@H]2O[C@H](C)C[C@H](N(C)C)[C@H]2O)[C@](C)(OC)C[C@@H](C)C(=O)[C@H](C)[C@@H](O)[C@]1(C)O [Clarithromycin, clarithromycin]

- CL/F [2, 19]: 3.04 (1.11) L/h
- CL/F ([2]; ilaprazole monotherapy, period 1 of part 1, N = 13, arithmetic mean (SD)): 3.28 (1.23) L/h
- AUC(0-inf) ([2]; 10 mg, AUCinf, geometric least square mean, ilaprazole monotherapy, period 1 of part 1, N = 13): 3220 ng·h/mL
- AUC(0-inf) ([2]; 10 mg, AUCinf, ilaprazole monotherapy, period 1 of part 1, N = 13, arithmetic mean (SD)): 3390 ng·h/mL
- AUC(0-t) ([2]; 10 mg, AUClast, geometric least square mean, ilaprazole monotherapy, period 1 of part 1, N = 13): 3140 ng·h/mL
- AUC(0-t) ([2]; 10 mg, AUClast, ilaprazole monotherapy, period 1 of part 1, N = 13, arithmetic mean (SD)): 3300 ng·h/mL
- Cmax ([2]; 10 mg, geometric least square mean, ilaprazole monotherapy, period 1 of part 1, N = 13): 447 ng/mL
- Cmax [2, 20]: 479 ng/mL
- Vd/F [2, 20]: 19.5 L
- AUC(0-inf) ([2]; 10 mg, mean AUCinf, ilaprazole monotherapy): 3390 ng·h/mL
- AUC(0-t) ([2]; 10 mg, mean AUClast, ilaprazole monotherapy): 3300 ng·h/mL
- half-life ([2]; 10 mg, t1/2, ilaprazole monotherapy, period 1 of part 1, N = 13, arithmetic mean (SD)): 4.16 h
- AUC(0-inf) ([2]; AUCinf, geometric least square mean, ilaprazole in triple therapy, period 2 of part 1, N = 13): 3490 ng·h/mL
- AUC(0-inf) ([2]; AUCinf, ilaprazole in triple therapy, period 2 of part 1, N = 13, arithmetic mean (SD)): 3680 ng·h/mL
- AUC(0-t) ([2]; AUClast, geometric least square mean, ilaprazole in triple therapy, period 2 of part 1, N = 13): 3350 ng·h/mL
- AUC(0-t) ([2]; AUClast, ilaprazole in triple therapy, period 2 of part 1, N = 13, arithmetic mean (SD)): 3540 ng·h/mL
- Cmax ([2]; geometric least square mean, ilaprazole in triple therapy, period 2 of part 1, N = 13): 414 ng/mL
- Cmax [2, 19]: 446 ng/mL
- Vd/F [2, 19]: 20.4 L
- AUC(0-inf) ([2]; mean AUCinf, ilaprazole in triple therapy): 3680 ng·h/mL
- AUC(0-t) ([2]; mean AUClast, ilaprazole in triple therapy): 3540 ng·h/mL
- half-life ([2]; t1/2, ilaprazole in triple therapy, period 2 of part 1, N = 13, arithmetic mean (SD)): 4.66 h
- Tmax ([2]; 10 mg, ilaprazole 10 mg oral single dose alone (monotherapy, period 1 of part 1), N = 13): 3.5 h
- Tmax ([2]; ilaprazole 10 mg oral with clarithromycin 500 mg and amoxicillin 1000 mg (triple therapy, day 5 of period 2, part 1), N = 13): 3 h
SMILES: COc1ccnc(C[S+]([O-])c2nc3cc(-n4cccc4)ccc3[nH]2)c1C (centres unmarked) [Ilaprazole, ilaprazole]
- Subjects with adverse drug reactions [4]: no drug-related AE
- Subjects with any adverse event [4]: 5 (31.3) number (%) of subjects
